Experimental data from patent US20230174608A1, “Polypeptide Derivative Having Dual Receptor Agonistic Action and Use Thereof” (TIANJIN INSTITUTE OF PHARMACEUTICAL RESEARCH CO., LTD., priority 2020, published 2023).
*1 amine or outer side, *2 acyl side, *3 side chain or, on linkers, in order; H or OH if unused. Where a SMILES comes first, the peptide text is derived from it. Side-chain parts run from the residue outwards. [ ]: non-standard residue; d: D form. The star is where a group is joined. C18 diacid = O=C(O)CCCCCCCCCCCCCCCCC(=O)*; γGlu = O=C(O)[C@H](CCC(=O)[*:2])N[*:1]; Palmitoyl = CCCCCCCCCCCCCCCC(=O)*; AEEA = NCCOCCOCC(=O)O; Aib = CC(C)(N)C(=O)O

What was measured:
[1] = biological target: T1, GLP-1R (Homo sapiens, UniProt P43220); assay: GLP-1 receptor-mediated cAMP production in vitro; assay type: cell-based; conditions: HEK293 cell line stably expressing GLP-1R
T1 construct: expressed in transfected cells
T1 sequence (P43220 24-463, species assumed): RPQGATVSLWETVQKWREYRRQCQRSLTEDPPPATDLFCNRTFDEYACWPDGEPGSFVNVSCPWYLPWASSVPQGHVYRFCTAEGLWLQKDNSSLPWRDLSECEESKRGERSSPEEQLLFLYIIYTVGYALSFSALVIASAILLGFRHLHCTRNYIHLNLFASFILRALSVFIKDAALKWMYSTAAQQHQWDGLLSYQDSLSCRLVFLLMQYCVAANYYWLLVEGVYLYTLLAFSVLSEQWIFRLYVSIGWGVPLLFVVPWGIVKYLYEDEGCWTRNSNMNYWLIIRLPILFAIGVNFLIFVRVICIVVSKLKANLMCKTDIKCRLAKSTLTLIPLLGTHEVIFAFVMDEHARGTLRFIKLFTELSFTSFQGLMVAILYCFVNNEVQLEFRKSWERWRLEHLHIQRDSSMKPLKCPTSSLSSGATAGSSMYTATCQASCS
Protocol: (§1) HEK293 cell line stably expressing GLP-1R or GCGR was used for screening GLP-1R and GCGR agonist.
(§2) Preparation of test sample: each compound was prepared into 100 μM stock solution, and then gradually diluted to working concentrations of 1 μM, 100 nM, 10 nM, 1 nM, 10^−1 nM, 10^−2 nM, 10^−3 nM, and H2O.
(§3) 1) Each compound to be tested was mixed with a serum-free medium (containing 0.1% BSA and 0.5 mM IBMX) to obtain a solution at a concentration 2 times the working concentration.
(§4) 2) The cells were digested, suspended in a serum-free medium (containing 0.5 mM IBMX), counted, and placed in a 384-well plate at a density of 1,000 cells/5 μL/well, then 5 μL of the testing compound was added, and the plate was placed in dark for reaction for 30 min.
(§5) 3) After the reaction was completed, a substrate for detecting cAMP was added, and the plate was placed in dark for reaction at the room temperature for 60 min.
(§6) 4) After the reaction was completed, the plate was placed on the Envision2104 multifunctional microplate reader for detection, and the ratio of optical density (OD) values at 665 nm and 615 nm were read out.

[2] = biological target: T2, GCGR (Homo sapiens, UniProt P47871); assay: GC receptor-mediated cAMP production in vitro; assay type: cell-based; conditions: HEK293 cell line stably expressing GCGR
T2 construct: expressed in transfected cells
T2 sequence (P47871 26-477, species assumed): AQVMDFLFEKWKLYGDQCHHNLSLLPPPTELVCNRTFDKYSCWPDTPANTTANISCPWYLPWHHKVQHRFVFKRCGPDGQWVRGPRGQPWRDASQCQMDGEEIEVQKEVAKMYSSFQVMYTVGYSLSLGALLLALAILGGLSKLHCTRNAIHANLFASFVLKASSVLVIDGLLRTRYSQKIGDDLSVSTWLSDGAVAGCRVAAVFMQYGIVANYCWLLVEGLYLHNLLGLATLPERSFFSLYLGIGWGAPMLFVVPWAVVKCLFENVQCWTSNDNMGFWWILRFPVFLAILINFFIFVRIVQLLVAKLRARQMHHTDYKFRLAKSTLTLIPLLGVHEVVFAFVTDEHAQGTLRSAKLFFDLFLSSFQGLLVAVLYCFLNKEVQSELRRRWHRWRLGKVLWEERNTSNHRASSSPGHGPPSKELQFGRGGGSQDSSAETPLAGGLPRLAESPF
Protocol: as §1, §2, §3, §4, §5, §6

Compound	EC50 [1]	EC50 [2]
CCCCCCCCCCCCCCCC(=O)N[C@@H](CCC(=O)NCCCC[C@H](NC(=O)[C@H](C)NC(=O)[C@H](C)NC(=O)[C@H](CCCNC(=N)N)NC(=O)[C@H](CCC(=O)O)NC(=O)[C@H](CC(=O)O)NC(=O)[C@H](CC(C)C)NC(=O)[C@H](Cc1ccc(O)cc1)NC(=O)[C@H](CCCCN)NC(=O)[C@H](CO)NC(=O)[C@H](Cc1ccc(O)cc1)NC(=O)[C@H](CC(=O)O)NC(=O)[C@H](CO)NC(=O)[C@@H](NC(=O)[C@H](Cc1ccccc1)NC(=O)[C@@H](NC(=O)CNC(=O)[C@H](CCC(N)=O)NC(=O)[C@H](CO)NC(=O)[C@@H](N)Cc1c[nH]cn1)[C@@H](C)O)[C@@H](C)O)C(=O)N[C@@H](CCC(=O)O)C(=O)N[C@@H](Cc1ccccc1)C(=O)N[C@H](C(=O)N[C@@H](C)C(=O)N[C@@H](Cc1c[nH]c2ccccc12)C(=O)N[C@@H](CC(C)C)C(=O)N[C@@H](CCC(=O)O)C(=O)N[C@@H](C)C(=O)NCC(=O)NCC(N)=O)[C@@H](C)CC)C(=O)O [dgc001] (HELM PEPTIDE1{H.S.Q.G.T.F.T.S.D.Y.S.K.Y.L.D.E.R.A.A.K.E.F.I.A.W.L.E.A.G.G.[am]}|PEPTIDE2{[CCCCCCCCCCCCCCCC(=O)[*:2]].[gGlu]}$PEPTIDE1,PEPTIDE2,20:R3-2:R2$$$V2.0; N-terminus assumed)	1.13 nM	0.806 nM
CC[C@H](C)[C@H](NC(=O)[C@H](Cc1ccccc1)NC(=O)[C@H](CCC(=O)O)NC(=O)[C@H](CCCCNC(=O)COCCOCCNC(=O)COCCOCCNC(=O)CC[C@H](NC(=O)CCCCCCCCCCCCCCCCC(=O)O)C(=O)O)NC(=O)[C@H](C)NC(=O)[C@H](C)NC(=O)[C@H](CCCNC(=N)N)NC(=O)[C@H](CCC(=O)O)NC(=O)[C@H](CCC(=O)O)NC(=O)[C@H](CC(C)C)NC(=O)[C@H](Cc1ccc(O)cc1)NC(=O)[C@H](CCCCN)NC(=O)[C@H](CO)NC(=O)[C@H](Cc1ccc(O)cc1)NC(=O)[C@H](CC(=O)O)NC(=O)[C@H](CO)NC(=O)[C@@H](NC(=O)[C@H](Cc1ccccc1)NC(=O)[C@@H](NC(=O)CNC(=O)[C@H](CCC(N)=O)NC(=O)C(C)(C)NC(=O)[C@@H](N)Cc1c[nH]cn1)[C@@H](C)O)[C@@H](C)O)C(=O)N[C@@H](C)C(=O)N[C@@H](Cc1c[nH]c2ccccc12)C(=O)N[C@@H](CC(C)C)C(=O)N[C@@H](CCC(=O)O)C(=O)N[C@@H](C)C(=O)NCC(=O)NCC(N)=O [dgc006] (H-H[Aib]QGTFTSDYSKYLEERAAK([AEEA-AEEA-γGlu-C18 diacid])EFIAWLEAGG-NH2; N-terminus assumed)	0.472 nM	6.41 nM
CCCCCCCCCCCCCCCC(=O)N[C@@H](CCC(=O)NCCCC[C@H](NC(=O)[C@H](C)NC(=O)[C@H](C)NC(=O)[C@H](CCCNC(=N)N)NC(=O)[C@H](CCC(=O)O)NC(=O)[C@H](CC(=O)O)NC(=O)[C@H](CC(C)C)NC(=O)[C@H](Cc1ccc(O)cc1)NC(=O)[C@H](CCCCN)NC(=O)[C@H](CO)NC(=O)[C@H](Cc1ccc(O)cc1)NC(=O)[C@H](CC(=O)O)NC(=O)[C@H](CO)NC(=O)[C@@H](NC(=O)[C@H](Cc1ccccc1)NC(=O)[C@@H](NC(=O)CNC(=O)[C@H](CCC(N)=O)NC(=O)C(C)(C)NC(=O)[C@@H](N)Cc1c[nH]cn1)[C@@H](C)O)[C@@H](C)O)C(=O)N[C@@H](CCC(=O)O)C(=O)N[C@@H](Cc1ccccc1)C(=O)N[C@H](C(=O)N[C@@H](C)C(=O)N[C@@H](Cc1c[nH]c2ccccc12)C(=O)N[C@@H](CC(C)C)C(=O)N[C@@H](CCC(=O)O)C(=O)N[C@@H](CO)C(=O)NCC(=O)NCC(N)=O)[C@@H](C)CC)C(=O)O [dgc007] (HELM PEPTIDE1{H.[Aib].Q.G.T.F.T.S.D.Y.S.K.Y.L.D.E.R.A.A.K.E.F.I.A.W.L.E.S.G.G.[am]}|PEPTIDE2{[CCCCCCCCCCCCCCCC(=O)[*:2]].[gGlu]}$PEPTIDE1,PEPTIDE2,20:R3-2:R2$$$V2.0; N-terminus assumed)	0.28 nM	0.971 nM
CCCCCCCCCCCCCCCC(=O)N[C@@H](CCC(=O)NCCOCCOCC(=O)NCCOCCOCC(=O)NCCCC[C@H](NC(=O)[C@H](C)NC(=O)[C@H](C)NC(=O)[C@H](CCCNC(=N)N)NC(=O)[C@H](CCC(=O)O)NC(=O)[C@H](CCC(=O)O)NC(=O)[C@H](CC(C)C)NC(=O)[C@H](Cc1ccc(O)cc1)NC(=O)[C@H](CCCCN)NC(=O)[C@H](CO)NC(=O)[C@H](Cc1ccc(O)cc1)NC(=O)[C@H](CC(=O)O)NC(=O)[C@H](CO)NC(=O)[C@@H](NC(=O)[C@H](Cc1ccccc1)NC(=O)[C@@H](NC(=O)CNC(=O)[C@H](CCC(N)=O)NC(=O)C(C)(C)NC(=O)[C@@H](N)Cc1c[nH]cn1)[C@@H](C)O)[C@@H](C)O)C(=O)N[C@@H](CCC(=O)O)C(=O)N[C@@H](Cc1ccccc1)C(=O)N[C@H](C(=O)N[C@@H](C)C(=O)N[C@@H](Cc1c[nH]c2ccccc12)C(=O)N[C@@H](CC(C)C)C(=O)N[C@@H](CCC(=O)O)C(=O)N[C@@H](CO)C(=O)NCC(=O)NCC(N)=O)[C@@H](C)CC)C(=O)O [dgc009] (H-H[Aib]QGTFTSDYSKYLEERAAK([AEEA-AEEA-γGlu-Palmitoyl])EFIAWLESGG-NH2; N-terminus assumed)	0.092 nM	8.22 nM
CCCCCCCCCCCCCCCC(=O)N[C@@H](CCC(=O)NCCOCCOCC(=O)NCCOCCOCC(=O)NCCCC[C@H](NC(=O)[C@H](C)NC(=O)[C@H](C)NC(=O)[C@H](CCCNC(=N)N)NC(=O)[C@H](CCC(=O)O)NC(=O)[C@H](CCC(=O)O)NC(=O)[C@H](CC(C)C)NC(=O)[C@H](Cc1ccc(O)cc1)NC(=O)[C@H](CCCCN)NC(=O)[C@H](CO)NC(=O)[C@H](Cc1ccc(O)cc1)NC(=O)[C@H](CC(=O)O)NC(=O)[C@H](CO)NC(=O)[C@@H](NC(=O)[C@H](Cc1ccccc1)NC(=O)[C@@H](NC(=O)CNC(=O)[C@H](CCC(N)=O)NC(=O)C(C)(C)NC(=O)[C@@H](N)Cc1c[nH]cn1)[C@@H](C)O)[C@@H](C)O)C(=O)N[C@@H](CCC(=O)O)C(=O)N[C@@H](Cc1ccccc1)C(=O)N[C@H](C(=O)N[C@@H](C)C(=O)N[C@@H](Cc1c[nH]c2ccccc12)C(=O)N[C@@H](CC(C)C)C(=O)N[C@@H](CCC(=O)O)C(=O)N[C@@H](C)C(=O)NCC(=O)NCC(N)=O)[C@@H](C)CC)C(=O)O [dgc011] (H-H[Aib]QGTFTSDYSKYLEERAAK([AEEA-AEEA-γGlu-Palmitoyl])EFIAWLEAGG-NH2; N-terminus assumed)	0.955 nM	4.13 nM
CC(C)C[C@H](NC(=O)[C@H](Cc1c[nH]c2ccccc12)NC(=O)[C@H](C)NC(=O)[C@@H](NC(=O)[C@H](Cc1ccccc1)NC(=O)[C@H](CCC(=O)O)NC(=O)[C@H](CCCCNC(=O)COCCOCCNC(=O)COCCOCCNC(=O)CC[C@H](NC(=O)CCCCCCCCCCCCCCCCC(=O)O)C(=O)O)NC(=O)[C@H](C)NC(=O)[C@H](C)NC(=O)[C@H](CCCNC(=N)N)NC(=O)[C@H](CCC(=O)O)NC(=O)[C@H](CCC(=O)O)NC(=O)[C@H](CC(C)C)NC(=O)[C@H](Cc1ccc(O)cc1)NC(=O)[C@H](CCCCN)NC(=O)[C@H](CO)NC(=O)[C@H](Cc1ccc(O)cc1)NC(=O)[C@H](CC(=O)O)NC(=O)[C@H](CO)NC(=O)[C@@H](NC(=O)[C@H](Cc1ccccc1)NC(=O)[C@@H](NC(=O)CNC(=O)[C@H](CCC(N)=O)NC(=O)[C@@H](CO)NC(=O)[C@@H](N)Cc1c[nH]cn1)[C@@H](C)O)[C@@H](C)O)C(C)C)C(=O)N[C@@H](CCC(=O)O)C(=O)NCC(=O)NCC(N)=O [dgc012] (H-H[dS]QGTFTSDYSKYLEERAAK([AEEA-AEEA-γGlu-C18 diacid])EFVAWLEGG-NH2; N-terminus assumed)	0.044 nM	2.17 nM
CCCCCCCCCCCCCCCC(=O)N[C@@H](CCC(=O)NCCCC[C@H](NC(=O)[C@H](C)NC(=O)[C@H](C)NC(=O)[C@H](CCCNC(=N)N)NC(=O)[C@H](CCC(=O)O)NC(=O)[C@H](CC(=O)O)NC(=O)[C@H](CC(C)C)NC(=O)[C@H](Cc1ccc(O)cc1)NC(=O)[C@H](CCCCN)NC(=O)[C@H](CO)NC(=O)[C@H](Cc1ccc(O)cc1)NC(=O)[C@H](CC(=O)O)NC(=O)[C@H](CO)NC(=O)[C@@H](NC(=O)[C@H](Cc1ccccc1)NC(=O)[C@@H](NC(=O)CNC(=O)[C@H](CCC(N)=O)NC(=O)C(C)(C)NC(=O)[C@@H](N)Cc1c[nH]cn1)[C@@H](C)O)[C@@H](C)O)C(=O)N[C@@H](CCC(=O)O)C(=O)N[C@@H](Cc1ccccc1)C(=O)N[C@H](C(=O)N[C@@H](C)C(=O)N[C@@H](Cc1c[nH]c2ccccc12)C(=O)N[C@@H](CC(C)C)C(=O)N[C@@H](CCC(=O)O)C(=O)NCC(=O)NCC(N)=O)[C@@H](C)CC)C(=O)O [dgc014] (HELM PEPTIDE1{H.[Aib].Q.G.T.F.T.S.D.Y.S.K.Y.L.D.E.R.A.A.K.E.F.I.A.W.L.E.G.G.[am]}|PEPTIDE2{[CCCCCCCCCCCCCCCC(=O)[*:2]].[gGlu]}$PEPTIDE1,PEPTIDE2,20:R3-2:R2$$$V2.0; N-terminus assumed)	0.516 nM	0.821 nM
